Experimental findings from patent US7932270B2 (Cytokinetics, Inc., priority 2006, dated 2011) are described below.

Molecules are shown by their SMILES.

T1 sequence (P02607 2-151): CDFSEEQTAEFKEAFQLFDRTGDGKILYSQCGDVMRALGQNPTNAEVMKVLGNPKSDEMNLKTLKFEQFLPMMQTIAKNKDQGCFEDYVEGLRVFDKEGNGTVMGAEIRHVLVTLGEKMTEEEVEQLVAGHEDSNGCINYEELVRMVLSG
T1 sequence (P10587 84-789): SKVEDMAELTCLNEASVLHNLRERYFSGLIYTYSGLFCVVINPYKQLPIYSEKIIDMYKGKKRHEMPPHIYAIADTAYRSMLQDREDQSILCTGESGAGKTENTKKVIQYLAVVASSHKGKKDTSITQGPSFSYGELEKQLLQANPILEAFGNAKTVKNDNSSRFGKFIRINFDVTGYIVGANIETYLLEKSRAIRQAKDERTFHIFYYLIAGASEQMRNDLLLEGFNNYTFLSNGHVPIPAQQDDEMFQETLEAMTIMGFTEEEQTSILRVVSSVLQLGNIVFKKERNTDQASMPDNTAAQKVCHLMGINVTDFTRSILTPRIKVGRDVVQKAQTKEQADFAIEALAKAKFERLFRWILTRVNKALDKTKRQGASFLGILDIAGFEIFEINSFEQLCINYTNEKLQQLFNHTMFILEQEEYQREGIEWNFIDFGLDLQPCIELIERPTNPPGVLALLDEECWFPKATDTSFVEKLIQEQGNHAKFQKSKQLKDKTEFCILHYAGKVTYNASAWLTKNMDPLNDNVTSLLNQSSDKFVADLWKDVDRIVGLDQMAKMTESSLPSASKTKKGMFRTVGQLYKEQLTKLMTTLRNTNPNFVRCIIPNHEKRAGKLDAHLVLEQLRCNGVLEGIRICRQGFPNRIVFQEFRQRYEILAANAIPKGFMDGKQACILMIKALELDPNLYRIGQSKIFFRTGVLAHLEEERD

This experiment concerns the target T1, chicken gizzard smooth muscle myosin subfragment-1 chemically crosslinked to cardiac or skeletal actin (Gallus gallus, UniProt P10587).
T1 construct: chicken gizzard smooth muscle myosin subfragment-1; from tissue; host or cells: chicken gizzard
Kind of experiment: Smooth muscle myosin ATPase dose response assay (pyruvate kinase/horseradish peroxidase/pyruvate oxidase-coupled, amplex red fluorescence). It is filed as biochemical. The note with it: read-out: IC50 Arithmetic Mean. The procedure, abridged: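 Inhibition is measured in a peroxidase/pyruvate oxidase-linked format at pH 7.00 and 22° C, 0.15 mM ATP final. Myosin input is titrated to a target turnover since active fraction differs between preparations.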
As for `O=C(NCc1cccnc1)c1ccc(-c2ccccc2)nc1NCCc1ncccc1F` [(2-{[2-(3-fluoro(2-pyridyl))ethyl]amino}-6-phenyl(3-pyridyl))-N-(3-pyridylmethyl)carboxamide], the IC50 came to 1.48 µM.

Consider `O=C(NCc1cccnc1)c1ccc(-c2ccccc2)nc1NCC(O)c1cccc(F)c1` (centres unmarked) [(2-{[2-(3-fluorophenyl)-2-hydroxyethyl]amino}-6-phenyl(3-pyridyl))-N-(3-pyridylmethyl)carboxamide], for which the IC50 was found to be 0.559 µM.

`O=C(NCc1cccnc1)c1c(CO)cc(-c2ccccc2)nc1NCCc1cccc(F)c1` [(2-{[2-(3-fluorophenyl)ethyl]amino}-4-(hydroxymethyl)-6-phenyl(3-pyridyl))-N-(3-pyridylmethyl)carboxamide]: the IC50 amounted to 59.1 µM.

For the molecule `O=C(NCc1cccnc1)c1cc(CO)c(-c2ccccc2)nc1NCCc1cccc(F)c1` [(2-{[2-(3-fluorophenyl)ethyl]amino}-5-(hydroxymethyl)-6-phenyl(3-pyridyl))-N-(3-pyridylmethyl)carboxamide], the IC50 worked out at 0.625 µM.

For the molecule `O=C(NCc1cccnc1)c1cc2c(nc1NCCc1cccc(F)c1)-c1ccccc1C2=O` [(2-{[2-(3-fluorophenyl)ethyl]amino}-5-oxoindeno[3,2-b]pyridin-3-yl)-N-(3-pyridylmethyl)carboxamide], the IC50 came out at 0.088 µM.

Consider `Cn1cc(-c2ccc(C(=O)NCc3cc[nH]n3)c(NCCc3cccc(F)c3)n2)cn1` [(2-{[2-(3-fluorophenyl)ethyl]amino}-6-(1-methylpyrazol-4-yl)(3-pyridyl))-N-(pyrazol-3-ylmethyl)carboxamide], for which the IC50 was found to be 0.031 µM.

For `Cn1cc(-c2ccc(C(=O)NCC3CCNC3=O)c(NCCc3cccc(F)c3)n2)cn1` (centres unmarked) [(2-{[2-(3-fluorophenyl)ethyl]amino}-6-(1-methylpyrazol-4-yl)(3-pyridyl))-N-[(2-oxopyrrolidin-3-yl)methyl]carboxamide], the IC50 amounted to 0.248 µM.

For `Cn1cc(-c2ccc(C(=O)NCC3CNCC(=O)N3)c(NCCc3cccc(F)c3)n2)cn1` (centres unmarked) [(2-{[2-(3-fluorophenyl)ethyl]amino}-6-(1-methylpyrazol-4-yl)(3-pyridyl))-N-[(6-oxopiperazin-2-yl)methyl]carboxamide], the IC50 was found to be 1.24 µM.

In the case of `Cn1cc(-c2ccc(C(=O)NCC3CCCCC(=O)N3)c(NCCc3cccc(F)c3)n2)cn1` (centres unmarked) [(2-{[2-(3-fluorophenyl)ethyl]amino}-6-(1-methylpyrazol-4-yl)(3-pyridyl))-N-[(7-oxoazaperhydroepin-2-yl)methyl]carboxamide], the IC50 amounted to 0.603 µM.

Consider `O=Cc1sccc1-c1ccc(C(=O)NCc2cccnc2)c(NCCc2cccc(F)c2)n1` [(2-{[2-(3-fluorophenyl)ethyl]amino}-6-(2-formyl(3-thienyl))(3-pyridyl))-N-(3-pyridylmethyl)carboxamide], for which the IC50 was found to be 1.48 µM.

As to `O=C(NCc1cccnc1)c1ccc(-c2cccs2)nc1NCCc1cccc(F)c1` [(2-{[2-(3-fluorophenyl)ethyl]amino}-6-(2-thienyl)(3-pyridyl))-N-(3-pyridylmethyl)carboxamide], the IC50 is 0.137 µM.

Turning to `O=Cc1ccsc1-c1ccc(C(=O)NCc2cccnc2)c(NCCc2cccc(F)c2)n1` [(2-{[2-(3-fluorophenyl)ethyl]amino}-6-(3-formyl(2-thienyl))(3-pyridyl))-N-(3-pyridylmethyl)carboxamide], the IC50 was 0.783 µM.

Take `O=C(NCc1cccnc1)c1ccc(-c2ccsc2)nc1NCCc1cccc(F)c1` [(2-{[2-(3-fluorophenyl)ethyl]amino}-6-(3-thienyl)(3-pyridyl))-N-(3-pyridylmethyl)carboxamide]: the IC50 is 0.048 µM.

For `Cc1csc(-c2ccc(C(=O)NCc3cccnc3)c(NCCc3cccc(F)c3)n2)c1` [(2-{[2-(3-fluorophenyl)ethyl]amino}-6-(4-methyl(2-thienyl))(3-pyridyl))-N-(3-pyridylmethyl)carboxamide], the IC50 turned out to be 0.148 µM.

`O=Cc1ccc(-c2ccc(C(=O)NCc3cccnc3)c(NCCc3cccc(F)c3)n2)s1` [(2-{[2-(3-fluorophenyl)ethyl]amino}-6-(5-formyl(2-thienyl))(3-pyridyl))-N-(3-pyridylmethyl)carboxamide]: the IC50 amounted to 0.052 µM.

For `O=Cc1cc(-c2ccc(C(=O)NCc3cccnc3)c(NCCc3cccc(F)c3)n2)cs1` [(2-{[2-(3-fluorophenyl)ethyl]amino}-6-(5-formyl(3-thienyl))(3-pyridyl))-N-(3-pyridylmethyl)carboxamide], the IC50 was 0.098 µM.

With `O=C(NCc1cccnc1)c1ccc(-c2cnn(CCO)c2)nc1NCCc1cccc(F)c1` [(2-{[2-(3-fluorophenyl)ethyl]amino}-6-[1-(2-hydroxyethyl)pyrazol-4-yl](3-pyridyl))-N-(3-pyridylmethyl)carboxamide], the IC50 stood at 0.972 µM.

On to `O=C(NCc1cccnc1)c1ccc(-c2ccsc2CO)nc1NCCc1cccc(F)c1` [(2-{[2-(3-fluorophenyl)ethyl]amino}-6-[2-(hydroxymethyl)(3-thienyl)](3-pyridyl))-N-(3-pyridylmethyl)carboxamide], for which the IC50 was 1.57 µM.

For `O=C(NCc1cccnc1)c1ccc(-c2sccc2CO)nc1NCCc1cccc(F)c1` [(2-{[2-(3-fluorophenyl)ethyl]amino}-6-[3-(hydroxymethyl)(2-thienyl)](3-pyridyl))-N-(3-pyridylmethyl)carboxamide], the IC50 was found to be 2.25 µM.

Regarding `O=C(NCc1cccnc1)c1ccc(-c2cccc(CO)c2)nc1NCCc1cccc(F)c1` [(2-{[2-(3-fluorophenyl)ethyl]amino}-6-[3-(hydroxymethyl)phenyl](3-pyridyl))-N-(3-pyridylmethyl)carboxamide], the IC50 worked out at 0.281 µM.

On to `COCc1cccc(-c2ccc(C(=O)NCc3cccnc3)c(NCCc3cccc(F)c3)n2)c1` [(2-{[2-(3-fluorophenyl)ethyl]amino}-6-[3-(methoxymethyl)phenyl](3-pyridyl))-N-(3-pyridylmethyl)carboxamide], for which the IC50 came out at 5.72 µM.

`CC(O)c1ccc(-c2ccc(C(=O)NCc3cccnc3)c(NCCc3cccc(F)c3)n2)s1` (centres unmarked) [(2-{[2-(3-fluorophenyl)ethyl]amino}-6-[5-(hydroxyethyl)(2-thienyl)](3-pyridyl))-N-(3-pyridylmethyl)carboxamide]: the IC50 stood at 0.415 µM.

Turning to `O=C(NCc1ccccn1)c1ccc(-c2ccc(CO)s2)nc1NCCc1cccc(F)c1` [(2-{[2-(3-fluorophenyl)ethyl]amino}-6-[5-(hydroxymethyl)(2-thienyl)](3-pyridyl))-N-(2-pyridylmethyl)carboxamide], the IC50 stood at 0.045 µM.

As for `O=C(NCc1cccnc1)c1ccc(-c2ccc(CO)s2)nc1NCCc1cccc(F)c1` [(2-{[2-(3-fluorophenyl)ethyl]amino}-6-[5-(hydroxymethyl)(2-thienyl)](3-pyridyl))-N-(3-pyridylmethyl)carboxamide], the IC50 came to 0.041 µM.

Regarding `O=C(NCc1cccnc1)c1ccc(-c2csc(CO)c2)nc1NCCc1cccc(F)c1` [(2-{[2-(3-fluorophenyl)ethyl]amino}-6-[5-(hydroxymethyl)(3-thienyl)](3-pyridyl))-N-(3-pyridylmethyl)carboxamide], the IC50 amounted to 0.073 µM.

Turning to `O=C(NCc1cccnc1)c1ccc(-c2cnoc2)nc1NCCc1cccc(F)c1` [(2-{[2-(3-fluorophenyl)ethyl]amino}-6-isoxazol-4-yl(3-pyridyl))-N-(3-pyridylmethyl)carboxamide], the IC50 was determined as 49.8 µM.

Broadly, the IC50 is the midpoint of a concentration-inhibition curve.
